Consider 21 compounds from patent publication US10479792B2, “Compounds” (GlaxoSmithKline Intellectual Property Development Limited, priority 2015, dated 2019).

In test [1] the test system is Leishmania donovani. Briefly: Intramacrophage Leishmania donovani assay (Assay 1), average number of amastigotes per cell (potency readout). The note with it: THP-1, 96 h, amastigotes in PMA-differentiated THP-1 macrophages, 96 h incubation, read-out: pEC50 value against Leishmania donovani (converted). It is filed as cell-based. How it is done:
Assay 1. Intramacrophage Leishmania donovani Assay
The intramacrophage Leishmania assay was performed using a modified version of the method described in De Rycker et al. (Antimicrob Agents Chemother. 2013 July; 57(7):2913-22. Comparison of a high-throughput high-content intracellular Leishmania donovani assay with an axenic amastigote assay. De Rycker M, Hallyburton I, Thomas J, Campbell L, Wyllie S, Joshi D, Cameron S, Gilbert I H, Wyatt P G, Frearson J A, Fairlamb A H, Gray D W.). Procedure: 350 nl of compound was pre-dispensed into 384 well sterile intermediary plates. For single point screening, amphotericin B was added to all wells of column 24 as a positive control (final concentration 2 μM) and DMSO to column 23. For potency determinations, ten-point, one in three dilution curves were created with the highest concentration being 50 μM and on each plate a control curve of amphotericin B was included. Controls were as follows: columns 11 and 12: DMSO, columns 23 and 24: amphotericin B (final concentration 2 μM). To the intermediary plates, 35 μl of THP-1 media was added and plates were shaken for >5 min to ensure complete mixing. THP-1 cells (8,000 per well, 50 μl) were plated into black clear-bottom 384 well plates (Corning) in presence of 20 nM PMA. After 20 min at RT, the plates were incubated at 37° C. under 5% CO2 in a humidified incubator for 75 h. The cells were then washed with […] sterile phosphate buffered saline (PBS) supplemented with 1 mM CaCl2, 0.5 mM MgCl2, 0.1% (w/v) bovine serum albumin (PBS-A) and amastigotes were added to all wells at a multiplicity of infection of 5 (40,000 amastigotes per well). After 40 min at RT, plates were returned to the incubator. Amastigotes were incubated in the presence of THP-1 macrophages for 16 h. Any remaining extracellular amastigotes were subsequently removed with an overflow wash of 1 mL PBS-A per well (wash buffer is being aspirated from the top of the well as it is being dispensed) followed by addition of 25 μl of the compound pre-dilutions using a Fluidx Ipette-pro pipetting station. The final dilution of each compound was 200-fold. Plates were incubated for 96 h and then washed (250 μl PBS-A) and fixed (4% (v/v) formaldehyde-PBS, 30 min, RT). After fixation, the wells were washed with 250 μl PBS, stained (10 μg/mL DAPI, 0.4 μg mL-1 HCS Cellmask Deep Red in PBS+0.1% (v/v) Triton X-100, 30 min, RT) and washed with 250 μl PBS. Finally, PBS+0.05% (v/v) thimerosal was added to the wells, the plates were sealed and imaged on a high-content microscope (GE IN Cell 2000) using a 10× objective. Image analysis was carried out with GE IN Cell Analyzer 1000 Workstation using the “Multi Target Analysis” module. Settings for segmentation were as follows: nuclei: minimum area: 142.384 μm2, sensitivity: 81, method: top-hat; cells: characteristic area: 2500 μm2, sensitivity: 60, method: multiscale top-hat; organelles (amastigotes): granule size 1-3, 3 scales, sensitivity: 90, detection in entire cell. For each well, i) THP-1 cell count (cytotoxicity readout) and ii) average number of amastigotes per cell (potency readout) were calculated, both in terms of pEC50 values.

In test [2] the test system is Leishmania donovani. Briefly: Leishmania donovani intracellular assay (Assay 5). To be noted: THP-1, 96 h, eGFP amastigotes in THP-1 cells, 96 h incubation, read-out: pEC50 value against Leishmania donovani (converted). The format is cell-based. How it is done: Assay 5. Leishmania donovani Intracellular Assay
Compounds were dispensed into black 384-well assay plates (Greiner) by acoustic dispensing (LabCyte ECHO). For potency determinations, eleven-point, one in three dilution curves were generated, with a top concentration of 50 μM. THP-1 human monocytes cells were dispensed in T225 tissue culture flasks and differentiated using 30 nM of PMA, after 24 hours they were infected overnight using Leishmania donovani expressing Green Fluorescent Protein (eGFP) amastigotes in the same T225 tissue culture flasks at a multiplicity of infection of 10. Next, any remaining free amastigotes were washed away with PBS and the infected THP-1 cells were harvested by trypsinisation. The infected cells were then plated into 384-well plates containing the compounds to be tested, at 3000 cells per well in RPMI media with 2% FBS and 25 mM Sodium bicarbonate. After 96 h incubation at 37° C. in presence of 5% CO2, the plates were fixed with 4% formaldehyde for 30 minutes, washed with PBS and stained with 0.1 mg/mL of DAPI for 30 minutes and washed again with PBS. The plates were imaged on a Perkin Elmer Opera high-content imaging system using a 20× air objective with two expositions, one for DAPI stain and other for eGFP. Images were analysed using the Acapella building blocks system (Perkin Elmer). The image analysis algorithm first identified the THP-1 nuclei followed by demarcation of the cytoplasm and identification of intracellular amastigotes. This algorithm reported mean number of parasites per THP-1 cell, the percentage of infected THP-1 cells and the total number of THP-1 cells.

The structures appear in SMILES notation.

For the compound `O=C(Nc1ccc(F)c(-c2ccn3c(N4CCCOCC4)cnc3n2)c1)N1CCCC1` [Example 22, N-(3-(3-(1,4-oxazepan-4-yl)imidazo[1,2-a]pyrimidin-7-yl)-4-fluorophenyl)pyrrolidine-1-carboxamide], the EC50 in the test on Leishmania donovani [1] is 0.251 to 10 µM; with Leishmania donovani [2] it was 0.126 to 10 µM.
The like results for `O=C(Nc1ccc(F)c(-c2ccn3c(N4CCOCC4)cnc3n2)c1)N1CC(F)(F)C1` [Example 24, 3,3-difluoro-N-(4-fluoro-3-(3-morpholinoimidazo[1,2-a]pyrimidin-7-yl)phenyl)azetidine-1-carboxamide] were, in that order, 0.251 to 10 µM and 0.126 to 10 µM.
Regarding `O=C(Nc1ccc(F)c(-c2ccn3c(N4CCOCC4)cnc3n2)c1)N1CCC(F)(F)C1` [Example 25, 3,3-difluoro-N-(4-fluoro-3-(3-morpholinoimidazo[1,2-a]pyrimidin-7-yl)phenyl)pyrrolidine-1-carboxamide], the EC50 was 12.6 to 20 µM in the test on Leishmania donovani [1] and 0.126 to 10 µM in the test with Leishmania donovani [2].
For `O=C(Nc1ccc(F)c(-c2ccn3c(-c4cnccn4)cnc3n2)c1)N1CCCC1` [Example 27, N-(4-fluoro-3-(3-(pyrazin-2-yl)imidazo[1,2-a]pyrimidin-7-yl)phenyl)pyrrolidine-1-carboxamide] the same measures were 0.251 to 10 µM and 0.126 to 10 µM.
The like results for `CC1CN(c2cnc3nc(-c4cc(NC(=O)N5CCCC5)ccc4F)ccn23)CCO1` (stereo not drawn) [Example 29, N-(4-fluoro-3-(3-(2-methylmorpholino)imidazo[1,2-a]pyrimidin-7-yl)phenyl)pyrrolidine-1-carboxamide] were, in that order, 0.251 to 10 µM and 0.126 to 10 µM.
Turning to `C[C@@H]1CN(c2cnc3nc(-c4cc(NC(=O)N5CCCC5)ccc4F)ccn23)C[C@H](C)O1` [Example 30, N-(3-(3-((2S,6R)-2,6-dimethylmorpholino)imidazo[1,2-a]pyrimidin-7-yl)-4-fluorophenyl)pyrrolidine-1-carboxamide], the EC50 in the test on Leishmania donovani [1] is 0.251 to 10 µM; with Leishmania donovani [2], 0.126 to 10 µM.
The like results for `CC1COCCN1c1cnc2nc(-c3cc(NC(=O)N4CCCC4)ccc3F)ccn12` (stereo not drawn) [Example 31, N-(4-fluoro-3-(3-(3-methylmorpholino)imidazo[1,2-a]pyrimidin-7-yl)phenyl)pyrrolidine-1-carboxamide] were, in that order, 0.251 to 10 µM and 0.126 to 10 µM.
Regarding `O=C(Nc1ccc(F)c(-c2ccn3c(N4CCNCC4)cnc3n2)c1)N1CCCC1` [Example 32, N-(4-fluoro-3-(3-(piperazin-1-yl)imidazo[1,2-a]pyrimidin-7-yl)phenyl)pyrrolidine-1-carboxamide], the EC50 in the test with Leishmania donovani [1] was over 50.1 µM; with Leishmania donovani [2], 12.6 to 39.8 µM.
For `C[C@@H]1CCCN1C(=O)Nc1ccc(F)c(-c2ccn3c(N4CCOCC4)cnc3n2)c1` [Example 33, N-(4-fluoro-3-(3-morpholinoimidazo[1,2-a]pyrimidin-7-yl)phenyl)-2-methylpyrrolidine-1-carboxamide] the same measures were 0.251 to 10 µM and 0.126 to 10 µM.
Regarding `C[C@@H]1CCN(C(=O)Nc2ccc(F)c(-c3ccn4c(N5CCOCC5)cnc4n3)c2)C1` [Example 34], the EC50 in the test on Leishmania donovani [1] is 0.251 to 10 µM; in the test with Leishmania donovani [2], 0.126 to 10 µM.
For `CC(C)(C)OC(=O)N1CCN(c2cnc3nc(-c4cc(NC(=O)N5CCCC5)ccc4F)ccn23)CC1` [Example 35, tert-butyl 4-(7-(2-fluoro-5-(pyrrolidine-1-carboxamido)phenyl)imidazo[1,2-a]pyrimidin-3-yl)piperazine-1-carboxylate] the same measures were 0.251 to 10 µM and 0.126 to 10 µM.
For `CN1CCN(c2cnc3nc(-c4cc(NC(=O)N5CCCC5)ccc4F)ccn23)CC1` [Example 36, N-(4-fluoro-3-(3-(4-methylpiperazin-1-yl)imidazo[1,2-a]pyrimidin-7-yl)phenyl)pyrrolidine-1-carboxamide] the same measures were 12.6 to 20 µM and 0.126 to 10 µM.
Regarding `Cc1nc(C)c(C(=O)Nc2ccc(F)c(-c3ccn4c(N5CCOCC5)cnc4n3)c2)o1` [Example 39, N-(4-fluoro-3-(3-morpholinoimidazo[1,2-a]pyrimidin-7-yl)phenyl)-2,4-dimethyloxazole-5-carboxamide], the EC50 with Leishmania donovani [1] is 0.251 to 10 µM; with Leishmania donovani [2], 0.126 to 10 µM.
For `C[C@H]1CN(c2cnc3nc(-c4cc(NC(=O)N5CCCC5)ccc4F)ccn23)CCO1` [Example 40, (S)—N-(4-fluoro-3-(3-(2-methylmorpholino)imidazo[1,2-a]pyrimidin-7-yl)phenyl)pyrrolidine-1-carboxamide] the same measures were 0.251 to 10 µM and 0.126 to 10 µM.
Take `CC1(C)CN(c2cnc3nc(-c4cc(NC(=O)N5CCCC5)ccc4F)ccn23)CCO1` [Example 41, N-(3-(3-(2,2-dimethylmorpholino)imidazo[1,2-a]pyrimidin-7-yl)-4-fluorophenyl)pyrrolidine-1-carboxamide]: the EC50 in the test with Leishmania donovani [1] was 0.251 to 10 µM; in the test with Leishmania donovani [2], 0.126 to 10 µM.
The like results for `CC1(C)COCCN1c1cnc2nc(-c3cc(NC(=O)N4CCCC4)ccc3F)ccn12` [Example 42, N-(3-(3-(3,3-dimethylmorpholino)imidazo[1,2-a]pyrimidin-7-yl)-4-fluorophenyl)pyrrolidine-1-carboxamide] were, in that order, 0.251 to 10 µM and 0.126 to 10 µM.
For the compound `CN1CCOCC1c1cnc2nc(-c3cc(NC(=O)N4CCCC4)ccc3F)ccn12` (stereo not drawn) [Example 43, N-(4-fluoro-3-(3-(4-methylmorpholin-3-yl)imidazo[1,2-a]pyrimidin-7-yl)phenyl)pyrrolidine-1-carboxamide], the EC50 with Leishmania donovani [1] was 0.251 to 10 µM; in the test on Leishmania donovani [2] it was 0.126 to 10 µM.
On to `CC(C)(C)OC(=O)N1CCOCC1c1cnc2nc(-c3cc(NC(=O)N4CCCC4)ccc3F)ccn12` (stereo not drawn) [Example 44, tert-butyl 3-(7-(2-fluoro-5-(pyrrolidine-1-carboxamido)phenyl)imidazo[1,2-a]pyrimidin-3-yl)morpholine-4-carboxylate], for which the EC50 with Leishmania donovani [1] is 0.251 to 10 µM; in the test with Leishmania donovani [2] it was 0.126 to 10 µM.
The like results for `O=C(Nc1cc(-c2ccn3c(N4CCOCC4)cnc3n2)c(F)cc1F)N1CCCC1` [Example 46, N-(2,4-difluoro-5-(3-morpholinoimidazo[1,2-a]pyrimidin-7-yl)phenyl)pyrrolidine-1-carboxamide] were, in that order, over 50.1 µM and 0.126 to 10 µM.
For `COC1CCN(c2cnc3nc(-c4cc(NC(=O)N5CCCC5)ccc4F)ccn23)CC1` [Example 47, N-(4-fluoro-3-(3-(4-methoxypiperidin-1-yl)imidazo[1,2-a]pyrimidin-7-yl)phenyl)pyrrolidine-1-carboxamide] the same measures were 0.251 to 10 µM and 0.126 to 10 µM.
Turning to `CC(=O)N1CCN(c2cnc3nc(-c4cc(NC(=O)N5CCCC5)ccc4F)ccn23)CC1` [Example 48, N-(3-(3-(4-acetylpiperazin-1-yl)imidazo[1,2-a]pyrimidin-7-yl)-4-fluorophenyl)pyrrolidine-1-carboxamide], the EC50 in the test with Leishmania donovani [1] is over 50.1 µM; with Leishmania donovani [2], 0.126 to 10 µM.
